Measurements reported in the METLIN SMRT retention time set (Domingo-Almenara et al. 2019).

Assay: gradient 5% acetonitrile 3 min, to 50% in 2 min, to 85% in 15 min, held 3 min, 100 µL/min
Settings: column: Zorbax Extend-C18 2.1 x 50 mm; eluents: water / acetonitrile, 0.1% formic acid
In short: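 Retention times of pure standards were taken from adduct peaks that were selected by computer and manually inspected. Over 3 months, mixtures of ~100 molecules were run by HPLC–quadrupole time-of-flight mass spectrometry in positive and negative ionization mode. The Zorbax Extend-C18 column (2.1 × 50 mm, 1.8 μm) ran at 100 μL/min in water and acetonitrile, each containing 0.1% formic acid, with 40 μL dead volume and 900 μL dwell volume.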

| SMILES | RP-LC retention time |
| --- | --- |
| Cc1noc2nc(C)n(CC(=O)NC(C)CCc3ccccc3)c(=O)c12 (stereo not given) | 842 s |
| CCOC(=O)c1ncoc1-c1ccccc1C(=O)NC1CCCCC1 | 770 s |
| O=C(Nc1ccc(Cl)c(C(F)(F)F)c1)C1CCN(C(=O)C2Sc3ccccc3NC2=O)CC1 (stereo not given) | 948 s |
| CCC(C)NC(=O)C1CCN(S(=O)(=O)c2cc(C(=O)N3CCCC3)n(C)c2)CC1 (stereo not given) | 660 s |
| CCC(c1cccs1)N1C(=O)[C@H]2CN(S(=O)(=O)c3ccc(C(C)C)cc3)C[C@H]2C1=O (stereo not given in full) | 1140 s |
| Cc1ccc(N2CCN(C(=O)C3CCc4sc(C(=O)N(C)C)cc4C3)CC2)cc1 (stereo not given) | 825 s |
| Cc1nc(-c2noc(-c3ccncc3)n2)cn1CC(=O)NCc1ccc(Cl)cc1 | 683 s |
| Cc1noc(CN2CCN(C3CCN(Cc4cc(F)ccc4F)C3)C2=O)n1 (stereo not given) | 576 s |
| CN1CCCc2cc(C(CNC(=O)C(=O)Nc3ccc4c(c3)OCCO4)N3CCCC3)ccc21 (stereo not given) | 718 s |
| CCOC(=O)c1c(C)[nH]c(CCC(=O)NCCN2CCCCC2C)c1C (stereo not given) | 618 s |
| COc1ccc2[nH]cc(CCNC(=O)c3cnn(-c4ccc(Cl)cc4)c3C3CCNCC3)c2c1 | 694 s |
| COc1nn(C)cc1C(=O)N1CCCC(C(=O)NCc2ccccc2OC(F)(F)F)C1 (stereo not given) | 705 s |
| Cc1ccc(C)c(NC(=O)Cn2c(N3CCCCC3)nc(C)cc2=O)c1 | 688 s |
| CCOC(=O)c1ccc(NC(=O)COc2cccc3ccc(N4CCOCC4)nc23)cc1 | 654 s |
| Cc1cc(C(=O)CSc2nnnn2-c2ccccc2)c(C)n1Cc1ccco1 | 969 s |
| Cn1c(C2CCCN(S(C)(=O)=O)C2)nn(CC(=O)NC2CCCCC2)c1=O (stereo not given) | 606 s |
| CCOC(=O)c1nc(N(CC)Cc2ccccc2)c2ccccc2n1 | 899 s |
| Cc1ccccc1S(=O)(=O)N1CCC(c2nc(C(=O)N(C)C)c(C)o2)CC1 | 818 s |
| CC(C)(C)C(=O)Nc1nc2cc3c(cc2s1)OCO3 | 823 s |
| O=S(=O)(c1ccc(F)cc1F)N1CCC(c2noc(-c3ccc(F)cc3)n2)CC1 | 1130 s |
| CC(C)NC(=O)c1ccc(OCC2CCCN(C(=O)c3ccc(Br)o3)C2)cc1 (stereo not given) | 876 s |
| COC(=O)c1cccc(Nc2c(-c3ccc([N+](=O)[O-])cc3)nc3cnccn23)c1 | 839 s |

| SMILES | RP-LC retention time |
| --- | --- |
| COc1cccc(C(=O)CC2(O)C(=O)Nc3c(C)cccc32)c1 (stereo not given) | 728 s |
| O=C(CN1C(=O)c2cccc3cccc(c23)C1=O)NCc1ccc2c(c1)OCO2 | 747 s |
| O=C(Cn1nc2c(N3CCCCCC3)nccn2c1=O)Nc1ccc2c(c1)OCO2 | 667 s |
| CC1=C(c2ccc(C)cc2)S(=O)(=O)N=C1N1CCCN(C(=O)c2cccc(C)c2)CC1 | 898 s |
| Cc1ccc(Cn2c(CN3CCC(C(=O)NC4CC4)CC3)cc3ccccc32)cc1 | 716 s |
| COC(=O)c1c(C)[nH]c(C(=O)N2CCC(CC(=O)NCc3cccc(Br)c3)CC2)c1C | 800 s |
| Cc1cccc(NC(=O)Nc2nc(C)c(C(=O)NC3CCCC3)s2)c1 | 812 s |
| CCc1cccc(N2C(=O)CN(S(C)(=O)=O)CC2(C)C(=O)NCc2ccc(Cl)cc2)c1 (stereo not given) | 903 s |
| Cc1ccc(-n2ncc3c(NCCN(C)C)ncnc32)cc1Cl | 669 s |
| CCOc1ccc(C2C3=C(CCCC3=O)Nc3c2c(=O)n(C)c(=O)n3C)cc1OC (stereo not given) | 806 s |
| O=C(Nc1nnc(C2CCCO2)o1)c1cc2ccccc2o1 (stereo not given) | 655 s |
| Cc1cc(OCC(O)Cn2c(C3CC3)nc3ccccc32)cc(C)c1Cl (stereo not given) | 795 s |
| O=C(Nc1ccc2c(c1)OCCO2)N1CCN(c2nc3cccnc3n(Cc3ccccc3)c2=O)CC1 | 1000 s |
| Cc1ccc(Cl)cc1NC(=O)CN(C)S(=O)(=O)c1c[nH]c(C(=O)N2CCCC2)c1 | 818 s |
| Cn1c(=O)c(F)c(Nc2ccc(I)cc2F)c2c(=O)n(C[C@@H](O)CO)cnc21 | 756 s |
| CCOc1ccc(CN(CC)Cc2cc(=O)n3cc(Cl)ccc3n2)cc1 | 654 s |
| O=C(CSc1cc(N2CCN(c3ccccc3F)CC2)ncn1)NCc1ccccc1 | 1110 s |
| CSc1n[nH]c(-c2cccs2)n1 | 714 s |
| CC(=O)c1cccc(NC(=O)Cn2cccc2-c2nc(-c3ccccc3)no2)c1 | 988 s |
| CCN1CCn2c(nc3cc(C(=O)NCc4ccc(OC(C)C)cc4)ccc32)C1=O | 726 s |
| COc1cc(=O)c(C(N)=O)nn1-c1ccc(F)cc1 | 579 s |
| CCn1c(=O)n(CC)c2cc(S(=O)(=O)c3ccccc3)c(NC(=O)CC(C)C)cc21 | 937 s |

| SMILES | RP-LC retention time |
| --- | --- |
| Cc1ccc(F)cc1NC(=O)c1cnc(-c2ccc(F)cc2)nc1-c1ccncc1 | 1060 s |
| Cc1cccc(CN2CCCn3nc(C(=O)NCc4cccs4)cc3C2=O)c1 | 874 s |
| Fc1cc(F)cc(-c2nnc(Cc3nc(-c4ccc5c(c4)OCO5)no3)o2)c1 | 987 s |
| CC(C)NC(=O)c1cc2cc(Br)ccc2[nH]1 | 879 s |
| O=C1NCCCn2cc(S(=O)(=O)Nc3ccc(Cl)cc3)cc21 | 682 s |
| CCOc1ccc(NC(=O)Cn2nc3cc(C)nc(-c4cccc(Cl)c4)n3c2=O)cc1 | 971 s |
| O=c1ccc(-c2nc(-c3ccncc3)no2)nn1Cc1cccc(Br)c1 | 919 s |
| Cc1cccc(-n2cc(C(=O)OCC(=O)OC(C)(C)C)c3ccccc3c2=O)c1 | 1210 s |
| Cn1nc(-c2nnc(-c3ccccc3)o2)c2c1CCN(S(=O)(=O)c1ccc(Cl)cc1)C2 | 992 s |
| COc1cc(OC)c(NC(=O)CN2CCC(C(=O)N3CC(C)CC(C)C3)CC2)cc1Cl (stereo not given) | 730 s |
| Fc1ccccc1-c1noc(-c2nnn3c2COC(c2ccc(Cl)cc2)C3)n1 (stereo not given) | 1160 s |
| CCCc1cc(N2CCN(C(=O)c3cccs3)CC2)nc2nncn12 | 601 s |
| O=C(CN1c2ccc(F)cc2-c2ccccc2S1(=O)=O)NCc1ccc2c(c1)OCO2 | 913 s |
| Cc1ccc(-c2noc(-c3cccc(S(=O)(=O)NCc4ccc(C)o4)c3)n2)cc1 | 1170 s |
| Cc1c(S(=O)(=O)N2CCC(C)CC2)c(C)n(C)c1-c1nnc(C2CCC2)o1 | 1100 s |
| CC(=O)c1cccc(NC(=O)C2Oc3ccccc3NC2=O)c1 (stereo not given) | 702 s |
| CC1Cc2cc(S(=O)(=O)N3CCN(c4ccccn4)CC3)ccc2N1C(=O)C1CC1 (stereo not given) | 668 s |
| O=C(Nc1ccccc1F)C(=O)c1cn(CC(=O)N2CCOCC2)c2ccccc12 | 906 s |
| Cc1nc(Nc2ccc(F)cn2)sc1C(=O)N1CCN(c2ccccn2)CC1 | 602 s |
| CCCN1C(=O)COc2ccc(-c3noc(-c4ccccc4Br)n3)cc21 | 1280 s |
| Cc1noc(C2CN(C(=O)Nc3ccc(Cl)cc3C)CC23CCOCC3)n1 (stereo not given) | 792 s |
